The record followed here is patent publication US10689383B2, “Optionally fused heterocyclyl-substituted derivatives of pyrimidine useful for the treatment of inflammatory, metabolic, oncologic and autoimmune diseases” (NUEVOLUTION A/S, priority 2014, dated 2020).

The target of assay [1] is T1, human RORγt (Ligand Binding Domain) (Homo sapiens, UniProt P51449).
T1 construct: purchased Crelux (Planegg, Germany) batch no PC5032-1
T1 sequence (P51449 269-508 limits assumed): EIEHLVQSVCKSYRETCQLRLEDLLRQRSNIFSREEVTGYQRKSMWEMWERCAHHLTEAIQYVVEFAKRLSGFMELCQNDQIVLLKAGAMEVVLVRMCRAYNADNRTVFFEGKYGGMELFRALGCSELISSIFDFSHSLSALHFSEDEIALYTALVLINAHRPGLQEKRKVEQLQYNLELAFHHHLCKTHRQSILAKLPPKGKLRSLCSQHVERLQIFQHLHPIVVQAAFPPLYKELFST
Nature of the assay: Fluorescence Polarization (FP) Assay. The following applies: Fluorescence Polarization (FP) Assay; values given as upper bounds of activity ranges; read-out: FP activity range. An outline of the steps:
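In vitro FP binding assay monitoring ligand binding within the ligand binding pocket. Probe is a TAMRA-labelled RORγt ligand (MW 910 g/mole); DMSO served as negative control.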
(In general: Fluorescence polarisation rises when a labelled molecule tumbles more slowly, as on binding a larger partner.)

The target of assay [2] is T2, yeast Gal4-DNA binding domain fused to the ligand binding domain of human RORγ (Homo sapiens, UniProt P51449).
T2 construct: host or cells: HEK293t
T2 sequence (P51449 269-508 limits assumed): T1 sequence (P51449 269-508 limits assumed)
Nature of the assay: RORγ Reporter Assay (Gal4). Format: cell-based. The conditions noted are these: values given as lower bounds of ranges; for Gal4 activity range @ 0.1 μM (% inhibition): RORγ Reporter Assay (Gal4) at 0.1 μM; for Gal4 activity range @ 1 μM (% inhibition): RORγ Reporter Assay (Gal4) at 1 μM. An outline of the steps: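 HEK293t reporter cells expressing the hybrid, with Gal4-UAS-driven firefly luciferase, treated in triplicate with compound at 1,000 nM and 100 nM (0.1% DMSO) in medium with 10% charcoal-stripped FBS for 24 h at 37 °C. Luminescence read; percent reduction of RLU calculated relative to vehicle.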

For `NC(=O)Cc1ccc(CNc2ncnc(N3CCOC[C@@H]3c3ccc(OC(F)(F)F)cc3F)c2F)cc1` [Example 258, 2-[4-[[[5-fluoro-6-[(3S)-3-[2-fluoro-4-(trifluoromethoxy)phenyl]morpholin-4-yl]pyrimidin-4-yl]amino]methyl]phenyl]acetamide], the IC50 in assay [1] was under 500 nM. Moreover, in assay [2], the “Gal4 activity range @ 0.1 μM (% inhibition)” value is recorded as over 80 % inhibition and the “Gal4 activity range @ 1 μM (% inhibition)” value was over 80 % inhibition.

Consider `Fc1c(NCC2CCOCC2)ncnc1N1CC(F)(F)CC1c1ccc(C(F)(F)F)cc1` (stereo not drawn) [Example 259, 6-[4,4-difluoro-2-[4-(trifluoromethyl)phenyl]pyrrolidin-1-yl]-5-fluoro-N-(tetrahydropyran-4-ylmethyl)pyrimidin-4-amine], for which the IC50 in assay [1] was under 500 nM. Moreover, in assay [2], the “Gal4 activity range @ 0.1 μM (% inhibition)” value was over 50 % inhibition and the “Gal4 activity range @ 1 μM (% inhibition)” value is recorded as over 80 % inhibition.

With `CS(=O)(=O)CC1(CNc2ncnc(N3CC(F)(F)CC3c3ccc(C(F)(F)F)cc3)c2F)CCOCC1` (stereo not drawn) [Example 260, 6-[4,4-difluoro-2-[4-(trifluoromethyl)phenyl]pyrrolidin-1-yl]-5-fluoro-N-[[4-(methylsulfonylmethyl)tetrahydropyran-4-yl]methyl]pyrimidin-4-amine], the IC50 in assay [1] was under 500 nM. Moreover, in assay [2], the “Gal4 activity range @ 0.1 μM (% inhibition)” value was over 50 % inhibition and the “Gal4 activity range @ 1 μM (% inhibition)” value is over 80 % inhibition.

`OCC1(CNc2ncnc(N3CC(F)(F)CC3c3ccc(C(F)(F)F)cc3)c2F)COC1` (stereo not drawn) [Example 261, [3-[[[6-[4,4-difluoro-2-[4-(trifluoromethyl)phenyl]pyrrolidin-1-yl]-5-fluoro-pyrimidin-4-yl]amino]methyl]oxetan-3-yl]methanol]: the IC50 in assay [1] is under 1000 nM. For the same molecule, in assay [2], the “Gal4 activity range @ 0.1 μM (% inhibition)” value is over 20 % inhibition and the “Gal4 activity range @ 1 μM (% inhibition)” value is reported as over 80 % inhibition.

Turning to `CC(=O)N1CCC(F)(CNc2ncnc(N3CCOC[C@@H]3c3ccc(C(F)(F)F)cc3)c2F)CC1` [Example 262, 1-[4-fluoro-4-[[[5-fluoro-6-[(3S)-3-[4-(trifluoromethyl)phenyl]morpholin-4-yl]pyrimidin-4-yl]amino]methyl]-1-piperidyl]ethanone], the IC50 in assay [1] is under 1000 nM. In assay [2], the “Gal4 activity range @ 0.1 μM (% inhibition)” value is listed as over 20 % inhibition and the “Gal4 activity range @ 1 μM (% inhibition)” value is on record as over 50 % inhibition.

As for `O=S(=O)(N1CCC(CNc2ncnc(N3CCOC[C@@H]3c3ccc(C(F)(F)F)cc3)c2F)CC1)C(F)(F)F` [Example 263, 5-fluoro-6-[(3S)-3-[4-(trifluoromethyl)phenyl]morpholin-4-yl]-N-[[1-(trifluoromethylsulfonyl)-4-piperidyl]methyl]pyrimidin-4-amine], the IC50 in assay [1] was under 500 nM. Moreover, in assay [2], the “Gal4 activity range @ 0.1 μM (% inhibition)” value is listed as over 50 % inhibition and the “Gal4 activity range @ 1 μM (% inhibition)” value is over 80 % inhibition.

For `Fc1c(NCC2(F)CCOCC2)ncnc1N1CCOC[C@@H]1c1ccc(C(F)(F)F)cc1` [Example 264, 5-fluoro-N-[(4-fluorotetrahydropyran-4-yl)methyl]-6-[(3S)-3-[4-(trifluoromethyl)phenyl]morpholin-4-yl]pyrimidin-4-amine], the IC50 in assay [1] is under 500 nM. Further, in assay [2], the “Gal4 activity range @ 0.1 μM (% inhibition)” value is recorded as over 20 % inhibition and the “Gal4 activity range @ 1 μM (% inhibition)” value was over 80 % inhibition.

In the case of `NC(=O)Cc1ccc(CN2CCc3c2ncnc3N2CCC[C@@H]2c2ccc(C(F)(F)F)cc2)cc1` [Example 265, 2-[4-[[4-[(2R)-2-[4-(trifluoromethyl)phenyl]pyrrolidin-1-yl]-5,6-dihydropyrrolo[2,3-d]pyrimidin-7-yl]methyl]phenyl]acetamide], the IC50 in assay [1] was under 500 nM. Further, in assay [2], the “Gal4 activity range @ 0.1 μM (% inhibition)” value is reported as over 80 % inhibition and the “Gal4 activity range @ 1 μM (% inhibition)” value was over 80 % inhibition.

In the case of `CS(=O)(=O)N1CCC(F)(CNc2ncnc(N3CCOC[C@@H]3c3ccc(C(F)(F)F)cc3)c2F)CC1` [Example 266, 5-fluoro-N-[(4-fluoro-1-methylsulfonyl-4-piperidyl)methyl]-6-[(3S)-3-[4-(trifluoromethyl)phenyl]morpholin-4-yl]pyrimidin-4-amine], the IC50 in assay [1] was under 500 nM. In addition, in assay [2], the “Gal4 activity range @ 0.1 μM (% inhibition)” value was over 80 % inhibition and the “Gal4 activity range @ 1 μM (% inhibition)” value is on record as over 80 % inhibition.

In the case of `CS(=O)(=O)N[C@H]1CC[C@H](CNc2ncnc(N3CCOC[C@@H]3c3ccc(OC(F)(F)F)cc3)c2F)CC1` [Example 267, N-[4-[[[5-fluoro-6-[(3S)-3-[4-(trifluoromethoxy)phenyl]morpholin-4-yl]pyrimidin-4-yl]amino]methyl]cyclohexyl] methanesulfonamide], the IC50 in assay [1] was under 500 nM. In assay [2], the “Gal4 activity range @ 0.1 μM (% inhibition)” value is over 80 % inhibition and the “Gal4 activity range @ 1 μM (% inhibition)” value was over 80 % inhibition.

In the case of `O=S(=O)(NC1CC1)c1ccc(CNc2ncnc(N3CCOCC3c3ccccc3)c2F)cc1` (stereo not drawn) [Example 273, N-cyclopropyl-4-[[[5-fluoro-6-(3-phenylmorpholin-4-yl)pyrimidin-4-yl]amino]methyl] benzenesulfonamide], the IC50 in assay [1] was under 500 nM. Besides, in assay [2], the “Gal4 activity range @ 0.1 μM (% inhibition)” value is on record as over 20 % inhibition and the “Gal4 activity range @ 1 μM (% inhibition)” value is on record as over 80 % inhibition.

Take `CS(=O)(=O)N1CCC(CNc2ncnc(N3CCOCC3c3ccccc3)c2F)CC1` (stereo not drawn) [Example 274, 5-fluoro-N-[(1-methylsulfonyl-4-piperidyl)methyl]-6-(3-phenylmorpholin-4-yl)pyrimidin-4-amine]: the IC50 in assay [1] was under 2000 nM. For the same molecule, in assay [2], the “Gal4 activity range @ 0.1 μM (% inhibition)” value is given as over 20 % inhibition and the “Gal4 activity range @ 1 μM (% inhibition)” value is over 50 % inhibition.

As for `O=C(O)Cc1ccc(CNc2ncnc(N3CCOCC3c3ccccc3)c2F)cc1` (stereo not drawn) [Example 276, 2-[4-[[[5-fluoro-6-(3-phenylmorpholin-4-yl)pyrimidin-4-yl]amino]methyl]phenyl]acetic acid], the IC50 in assay [1] was under 2000 nM. Moreover, in assay [2], the “Gal4 activity range @ 0.1 μM (% inhibition)” value is over 0 % inhibition and the “Gal4 activity range @ 1 μM (% inhibition)” value is on record as over 20 % inhibition.

Regarding `NC(=O)Cc1ccc(CNc2ncnc(N3CC(=O)CC3c3ccc(C(F)(F)F)cc3)c2F)cc1` (stereo not drawn) [Example 280, 2-[4-[[[5-fluoro-6-[4-oxo-2-[4-(trifluoromethyl)phenyl]pyrrolidin-1-yl]pyrimidin-4-yl]amino]methyl]phenyl]acetamide], the IC50 in assay [1] is under 500 nM. In assay [2], the “Gal4 activity range @ 0.1 μM (% inhibition)” value is on record as over 0 % inhibition and the “Gal4 activity range @ 1 μM (% inhibition)” value is over 20 % inhibition.

For the molecule `O=C(O)Cc1ccc(CNc2ncnc(N3CCOCC3c3ccccc3)c2F)s1` (stereo not drawn) [Example 282, 2-[5-[[[5-fluoro-6-(3-phenylmorpholin-4-yl)pyrimidin-4-yl]amino]methyl]-2-thienyl]acetic acid], the IC50 in assay [1] was under 10000 nM. For the same molecule, in assay [2], the “Gal4 activity range @ 0.1 μM (% inhibition)” value is over 0 % inhibition and the “Gal4 activity range @ 1 μM (% inhibition)” value is listed as over 0 % inhibition.

Turning to `NC(=O)Cc1ccc(CNc2ncnc(N3CCOCC3c3ccccc3)c2F)s1` (stereo not drawn) [Example 283, 2-[5-[[[5-fluoro-6-(3-phenylmorpholin-4-yl)pyrimidin-4-yl]amino]methyl]-2-thienyl]acetamide], the IC50 in assay [1] is under 1000 nM. Besides, in assay [2], the “Gal4 activity range @ 0.1 μM (% inhibition)” value was over 0 % inhibition and the “Gal4 activity range @ 1 μM (% inhibition)” value is over 20 % inhibition.

As to `NC(=O)Cc1ccc(Cn2ccc3c(N4CCOCC4c4ccccc4)ncnc32)cc1` (stereo not drawn) [Example 284, 2-[4-[[4-(3-phenylmorpholin-4-yl)pyrrolo[2,3-d]pyrimidin-7-yl]methyl]phenyl]acetamide], the IC50 in assay [1] was under 500 nM. In assay [2], the “Gal4 activity range @ 0.1 μM (% inhibition)” value is over 20 % inhibition and the “Gal4 activity range @ 1 μM (% inhibition)” value is on record as over 50 % inhibition.

Regarding `O=S(=O)(CC(F)(F)F)N[C@H]1CC[C@H](CNc2ncnc(N3CCOC[C@@H]3c3ccc(OC(F)(F)F)cc3)c2F)CC1` [Example 285, 2,2,2-trifluoro-N-[4-[[[5-fluoro-6-[(3S)-3-[4-(trifluoromethoxy)phenyl]morpholin-4-yl]pyrimidin-4-yl]amino]methyl]cyclohexyl]ethane sulfonamide], the IC50 in assay [1] was under 500 nM. Moreover, in assay [2], the “Gal4 activity range @ 0.1 μM (% inhibition)” value is recorded as over 0 % inhibition and the “Gal4 activity range @ 1 μM (% inhibition)” value is listed as over 20 % inhibition.

In the case of `CNC(=O)C1(CNc2ncnc(N3CCOC[C@@H]3c3ccc(C(F)(F)F)cc3)c2F)CCOCC1` [Example 286, 4-[[[5-fluoro-6-[(3S)-3-[4-(trifluoromethyl)phenyl]morpholin-4-yl]pyrimidin-4-yl]amino]methyl]-N-methyl-tetrahydropyran-4-carboxamide], the IC50 in assay [1] was under 2000 nM. In addition, in assay [2], the “Gal4 activity range @ 0.1 μM (% inhibition)” value was over 20 % inhibition and the “Gal4 activity range @ 1 μM (% inhibition)” value was over 20 % inhibition.

Take `N#CC[C@H]1CC[C@H](CNc2ncnc(N3CCOC[C@@H]3c3ccc(C(F)(F)F)cc3)c2F)CC1` [Example 287, 2-[4-[[[5-fluoro-6-[(3S)-3-[4-(trifluoromethyl)phenyl]morpholin-4-yl]pyrimidin-4-yl]amino]methyl]cyclohexyl] acetonitrile]: the IC50 in assay [1] was under 500 nM. For the same molecule, in assay [2], the “Gal4 activity range @ 0.1 μM (% inhibition)” value is over 50 % inhibition and the “Gal4 activity range @ 1 μM (% inhibition)” value is recorded as over 80 % inhibition.
